Reference: patent US12390470B2, “1-methylxanthine-based bioactive composition and method of use thereof” (Ingenious Ingredients, LP, priority 2021, dated 2025)
Where “and” joins values, the source holds several entries; their conditions need not be identical. Equal entries are not always repeated.

What was measured:
male Swiss Albino mice = experiment: Treadmill endurance test; assay type: in vivo
Protocol: (§1) Twenty-four 8-week-old male Swiss Albino mice were housed in an animal room at a constant temperature (22±3° C.) and humidity (30%-70%) under a 12:12 h light-dark cycle with standard laboratory diet (Purina 5L79, Rat and Mouse 18% protein; PMI Nutrition International, Brentwood, MO, USA). Distilled water was provided ad libitum. All animal experiments were reviewed and approved by the Institutional Animal Ethical Committee (IAEC) of Radiant Research Services Pvt. Ltd (Bangalore, India). All research was conducted in accordance with the guidelines of the committee for the purpose of control and supervision of experiments on animals.
After one week of acclimation, the animals were randomly divided by body weight into three groups (n=8 per group in each test) for oral treatment once a day, at approximately same time each day (±1 hour), for 28 consecutive days: (1) vehicle control or (2) 1-methylxanthine or (3) 1-methylxanthine plus paraxanthine. The dose administered to the mice was calculated using US Food and Drug Administration for human equivalence doses (HED), assuming a human weight of 60 kg. The following HED was used in this study: 100 mg 1-methylxanthine (Ingenious Ingredients, L.P Lewisville, TX, USA; mouse dose: 20.5 mg/kg bw/day), or 100 mg 1-methylxanthine (Ingenious Ingredients, L.P Lewisville, TX, USA; mouse dose: 20.5 mg/kg bw/day) plus 100 mg paraxanthine (ENFINITY™, Ingenious Ingredients, L.P Lewisville, TX, USA; mouse dose: 20.5 mg/kg bw/day). 0.5% Carboxy Methyl Cellulose sodium was used as vehicle and the test item formulations were prepared daily. Dosing was conducted via oral gavage using disposable polypropylene syringes with sterilized stainless steel gavage tubes. Food intake was monitored daily while water intake was ad libitum. BW was recorded weekly. […]
On 28th day of each respective treatment, all animals were subjected to a muscle endurance test. […] Distance traveled (cm) was measured as a marker of exercise performance.

glutathione = experiment: Glutathione level in young and old rats; assay type: in vivo
Protocol: as §1, with “young (6-8 Week) and twenty-four old (14-16 Months)” for “8-week-old male”, “Wistar rats” for “mice”
After one week of acclimation, the animals were randomly divided by body weight and age into six groups (n=8 per group in each test) for oral treatment once a day, at approximately same time each day (±1 hour), for 10 consecutive days: (1) vehicle control or (2) 1-methylxanthine or (3) 1-methylxanthine plus paraxanthine. The dose administered to the rat was calculated using US Food and Drug Administration for human equivalence doses (HED), assuming a human weight of 60 kg. […] Food intake was monitored daily while water intake was ad libitum. […] Body weight was recorded weekly. […]

participants = experiment: Resting heart rate, crossover vs caffeine; assay type: in vivo, human
From the text: All supplements were orally ingested with 8 fluid ounces of cold tap water.

healthy adult male = experiment: Subject report during work out; assay type: in vivo, human; conditions: 200 mg prior to work out
Protocol: Subject was a healthy adult. Subject was administered 200 mg of 1-methylxanthine prior to work out.
During another trial subject was administered 100 mg of 1-methylxanthine together with 100 mg of paraxanthine, prior to work out.

[1] = Organ weight (liver, heart), Example 1; assay type: in vivo; conditions: mice, 28 days
Protocol: as §1
(§2) After one week of acclimation, the animals were randomly divided by body weight into three groups (n=8 per group in each test) for oral treatment once a day, at approximately same time each day (±1 hour), for 28 consecutive days: (1) vehicle control or (2) 1-methylxanthine or (3) 1-methylxanthine plus paraxanthine. The dose administered to the mice was calculated using US Food and Drug Administration for human equivalence doses (HED), assuming a human weight of 60 kg. […] Food intake was monitored daily while water intake was ad libitum. BW was recorded weekly. […]

gastrocnemius = experiment: Gastrocnemius muscle mass after 28 days supplementation; assay type: in vivo, mice
Protocol: as §1, §2

For `Cn1c(=O)[nH]c2nc[nH]c2c1=O` [1-methylxanthine, 1-Methyl-3H-purine-2,6-dione], the “Distance travelled on treadmill” value (male Swiss Albino mice; baseline) was 269.6±33.0 cm, the “changes in treadmill performance greater than control” value (male Swiss Albino mice; baseline to day 28) was 10.0% and the “Distance travelled on treadmill” value (male Swiss Albino mice; day 28, oral 20.5 mg/kg bw/day each, 28 days) was 1,641.3±74.6 cm. For the same compound, the glutathione levels (glutathione; old rats) was 25.29 ± 0.93 µg/mL, the glutathione levels (glutathione; young rats, listed as 1-MX) was 28.57 ± 1.36 µg/mL and 28.57 ± 1.65 µg/mL and the “heart rate change from baseline” value (participants; 200 mg oral) was “did not increase”. The “heart rate reduced in comparison to CA” value (participants; 200 mg oral) was 3%, the “Resting Heart Rate MEAN (30-180)” value (participants; Average) was 57.9 bpm and the “Resting Heart Rate Mean Δ from 0” value (participants; Average) was −9.6 bpm. For the same compound, the “Resting Heart Rate MEAN (30-180)” value (participants; Person one) was 53.2 bpm, the “Resting Heart Rate Mean Δ from 0” value (participants; Person one) was −11.8 bpm and the “Resting Heart Rate Δ vs. CA” value (participants; Person one) was −2.0 bpm. The “Resting Heart Rate” value (participants; Person one, 30 min) was 63 bpm, the “Resting Heart Rate” value (participants; Person one, 60 min) was 54 bpm and the “Resting Heart Rate” value (participants; Person one, 90 min) was 49 bpm. The “Resting Heart Rate” value (participants; Person one, 120 min) was 45 bpm, the “Resting Heart Rate” value (participants; Person one, 180 min) was 55 bpm and the “Resting Heart Rate” value (participants; Person one, time 0, 200 mg oral) was 65 bpm. For the same compound, the “Resting Heart Rate MEAN (30-180)” value (participants; Person two) was 62.6 bpm, the “Resting Heart Rate Mean Δ from 0” value (participants; Person two) was −2.4 bpm and the “Resting Heart Rate Δ vs. CA” value (participants; Person two) was −1.0 bpm. The “Resting Heart Rate” value (participants; Person two, 30 min) was 61 bpm, the “Resting Heart Rate” value (participants; Person two, 60 min) was 60 bpm and the “Resting Heart Rate” value (participants; Person two, 90 min) was 65 bpm. For the same compound, the “Resting Heart Rate” value (participants; Person two, 120 min) was 60 bpm, the “Resting Heart Rate” value (participants; Person two, 180 min) was 62 bpm and the “Resting Heart Rate” value (participants; Person two, time 0, 200 mg oral) was 65 bpm. For the same compound, the “subject-reported effect during work out” value (healthy adult male) was “increased focus, concentration, mood and performance”, the Heart weight [1] was 189.13 ± 0.64 mg and the Liver weight [1] was 1847.25 ± 47.92 mg. For the same compound, the “gastrocnemius mass greater compared to control” value (gastrocnemius; 28 days) was 1.9% and the gastrocnemius mass (gastrocnemius; 28 days after supplementation) was 161.1 ± 4.3 mg.
